Read-outs that look alike come from different tables or passages of the source.
Key:
PA14 2P4 (pmrB) = system: PA14 2P4 (pmrB)
Summary of the method: (§1)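 MTT added (20–30 min, room temperature); MIC read by eye as lowest concentration inhibiting visible growth (yellow). Polymyxin B positive control from 16 μg/mL.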

PA14 4.13 (phoQ) = system: PA14 4.13 (phoQ)
Summary of the method: as §1

PA14 4.18 (pmrB) = system: PA14 4.18 (pmrB)
Summary of the method: as §1

S. aureus COL (MRSA) = system: S. aureus COL (MRSA)
Summary of the method: as §1

[1] = system: ZEM-1A (clinical MDR P. aeruginosa isolate)
Summary of the method: as §1

[2] = system: ZEM9A (clinical MDR P. aeruginosa isolate)
Summary of the method: as §1

[3] = system: human red blood cells (hRBC); experiment: Minimum hemolytic concentration (MHC); format: cell-based; conditions: CSV
From the text: We also measured minimal hemolysis concentrations (MHC) on human red blood cells by serial 2-fold dilution as an indication of toxicity against eukaryotic cells (Table 1).

B. cenocepacia = system: B. cenocepacia
Summary of the method: as §1

P. aeruginosa PA14 = system: P. aeruginosa PA14
Summary of the method: as §1

S. aureus Newman = system: S. aureus Newman
Summary of the method: as §1

S. epidermis = system: S. epidermis
Summary of the method: as §1

S. maltophilia = system: S. maltophilia
Summary of the method: as §1

H-KKLLKLLKLLL-NH2 [ln65, reference compound]
MIC P. aeruginosa PA14 2P4, full MH at pH 7.4 (PA14 2P4 (pmrB); CSV, full MH at pH 7.4): 32 ug/mL
MIC PA14 2P4 (pmrB) (PA14 2P4 (pmrB); MH pH 7.4, 16–20 h at 37 °C): 32 mg/L
MIC P. aeruginosa PA14 2P4 (PA14 2P4 (pmrB); Table S3, […] MH at pH 8.5): 2 to 4 mg/L
MIC P. aeruginosa PA14 4.13, […] MH at pH 8.5 (PA14 4.13 (phoQ); CSV, […] MH at pH 8.5): 2 ug/mL
MIC P. aeruginosa PA14 4.13, full MH at pH 7.4 (PA14 4.13 (phoQ); CSV, full MH at pH 7.4): 4 ug/mL
MIC PA14 4.13 (phoQ) (PA14 4.13 (phoQ); MH pH 7.4, 16–20 h at 37 °C): 4 mg/L
MIC P. aeruginosa PA14 4.13 (PA14 4.13 (phoQ); Table S3, […] MH at pH 8.5): 2 mg/L
MIC P. aeruginosa PA14 4.18, […] MH at pH 8.5 (PA14 4.18 (pmrB); CSV, […] MH at pH 8.5): 3 ug/mL
MIC P. aeruginosa PA14 4.18, full MH at pH 7.4 (PA14 4.18 (pmrB); CSV, full MH at pH 7.4): 32 ug/mL
MIC PA14 4.18 (pmrB) (PA14 4.18 (pmrB); MH pH 7.4, 16–20 h at 37 °C): 32 mg/L
MIC P. aeruginosa PA14 4.18 (PA14 4.18 (pmrB); Table S3, […] MH at pH 8.5): 2 to 4 mg/L
MIC S. aureus COL (MRSA), […] MH at pH 7.4 (S. aureus COL (MRSA); CSV, […] MH at pH 7.4): 2 ug/mL
MIC S. aureus COL (MRSA), […] MH at pH 8.5 (S. aureus COL (MRSA); CSV, […] MH at pH 8.5): 2 ug/mL
MIC S. aureus COL (MRSA), full MH at pH 7.4 (S. aureus COL (MRSA); CSV, full MH at pH 7.4): 4 ug/mL
MIC S. aureus COL (MRSA), full MH at pH 8.5 (S. aureus COL (MRSA); CSV, full MH at pH 8.5): 8 ug/mL
MIC S. aureus COL (MRSA) […] 7.4 (S. aureus COL (MRSA); Table S2, […] MH, pH 7.4): 2 mg/L
MIC S. aureus COL (MRSA) […] 8.5 (S. aureus COL (MRSA); Table S2, […] MH, pH 8.5): 2 mg/L
MIC S. aureus COL (MRSA) Full MH 7.4 (S. aureus COL (MRSA); Table S2, full MH, pH 7.4): 4 mg/L
MIC S. aureus COL (MRSA) Full MH 8.5 (S. aureus COL (MRSA); Table S2, full MH, pH 8.5): 8 mg/L
MIC S. aureus COL (MRSA) […] (S. aureus COL (MRSA); diluted MH ([…] MH, pH 8.5) per Table 1 footnote b, 16–20 h at 37 °C): 2 mg/L
MIC S. aureus COL (MRSA) Full (S. aureus COL (MRSA); full MH, pH 7.4, 16–20 h at 37 °C): 4 mg/L
MIC P. aeruginosa ZEM-1A, […] MH at pH 8.5 ([1]; CSV, […] MH at pH 8.5): 4 ug/mL
MIC P. aeruginosa ZEM-1A, full MH at pH 7.4 ([1]; CSV, full MH at pH 7.4): 2 ug/mL
MIC ZEM-1A ([1]; MH pH 7.4, 16–20 h at 37 °C): 2 mg/L
MIC P. aeruginosa ZEM-1A ([1]; Table S3, […] MH at pH 8.5): 4 mg/L
MIC P. aeruginosa ZEM9A, […] MH at pH 8.5 ([2]; CSV, […] MH at pH 8.5): 4 ug/mL
MIC P. aeruginosa ZEM9A, full MH at pH 7.4 ([2]; CSV, full MH at pH 7.4): 4 ug/mL
MIC P. aeruginosa ZEM9A ([2]; Table S3, […] MH at pH 8.5): 4 mg/L
MHC [3]: 125 µg/mL
MIC B. cenocepacia, full MH at pH 7.4 (B. cenocepacia; CSV, full MH at pH 7.4): >32 ug/mL
MIC B. cenocepacia (B. cenocepacia; MH pH 7.4, 16–20 h at 37 °C): >32 mg/L
MIC P. aeruginosa PA14, […] MH at pH 8.5 (P. aeruginosa PA14; CSV, […] MH at pH 8.5): 2 ug/mL
MIC P. aeruginosa PA14, full MH at pH 7.4 (P. aeruginosa PA14; CSV, full MH at pH 7.4): 3 ug/mL
MIC P. aeruginosa PA14 (P. aeruginosa PA14; MH pH 7.4, 16–20 h at 37 °C): 2 to 4 mg/L
MIC P. aeruginosa PA14 (P. aeruginosa PA14; Table S3, […] MH at pH 8.5, 16-20 hours at 37 °C): 2 mg/L
MIC S. aureus Newman, […] MH at pH 8.5 (S. aureus Newman; CSV, […] MH at pH 8.5): 2 ug/mL
MIC S. aureus Newman, full MH at pH 7.4 (S. aureus Newman; CSV, full MH at pH 7.4): 2 ug/mL
MIC S. aureus Newman (S. aureus Newman; MH pH 7.4, 16–20 h at 37 °C): 2 mg/L
MIC S. aureus Newman (S. aureus Newman; Table S3, […] MH at pH 8.5): 2 mg/L
MIC S. epidermis, […] MH at pH 8.5 (S. epidermis; CSV, […] MH at pH 8.5): 1 ug/mL
MIC S. epidermis, full MH at pH 7.4 (S. epidermis; CSV, full MH at pH 7.4): 2 ug/mL
MIC S. epidermis (S. epidermis; MH pH 7.4, 16–20 h at 37 °C): 2 mg/L
MIC S. epidermis (S. epidermis; Table S3, […] MH at pH 8.5): 1 mg/L
MIC S. maltophilia, […] MH at pH 8.5 (S. maltophilia; CSV, […] MH at pH 8.5): 4 ug/mL
MIC S. maltophilia, full MH at pH 7.4 (S. maltophilia; CSV, full MH at pH 7.4): 2 ug/mL
MIC S. maltophilia (S. maltophilia; MH pH 7.4, 16–20 h at 37 °C): 2 mg/L
MIC S. maltophilia (S. maltophilia; Table S3, […] MH at pH 8.5): 4 mg/L
